Measurements as given in PubChem BioAssay AID2060606 (Molecular Pharmacology Branch, DTP, NCI, 2025).
Several values for one entry are separate records, joined by “and”; a condition that tells them apart may be missing. Equal values may be shown once.

Tested on: 922993-354-T-J3-PDC complex spheroids, viability, % test/control
Experiment: Anticancer human tumor 922993-354-T-J3-PDC patient-derived endometrial carcinoma cell line growth inhibition [CLK]
Conditions: for viability, T/C: stronger effect = lower value
Outline: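 Patient-derived tumor cells grown as complex spheroids with HUVEC endothelial cells and mesenchymal stem cells, treated with drug combinations. Concentrations descend in half-log steps from near clinical Cmax, or from 10 microM if Cmax unknown.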

[1] = curve of first compound, second compound 0.0316 µM
[2] = curve of first compound, second compound 0.1 µM
[3] = curve of first compound, second compound 0.316 µM
[4] = curve of first compound, second compound 1 µM
[5] = curve of first compound, second compound 3.16 µM
[6] = curve of first compound, second compound 10 µM
[7] = second compound 0.0316 µM, first compound 0.0316 µM
[8] = second compound 0.0316 µM, first compound 0.1 µM
[9] = second compound 0.0316 µM, first compound 0.316 µM
[10] = second compound 0.0316 µM, first compound 1 µM
[11] = second compound 0.0316 µM, first compound 3.16 µM
[12] = second compound 0.0316 µM, first compound 10 µM
[13] = second compound 0.1 µM, first compound 0.0316 µM
[14] = second compound 0.1 µM, first compound 0.1 µM
[15] = second compound 0.1 µM, first compound 0.316 µM
[16] = second compound 0.1 µM, first compound 1 µM
[17] = second compound 0.1 µM, first compound 3.16 µM
[18] = second compound 0.1 µM, first compound 10 µM
[19] = second compound 0.316 µM, first compound 0.0316 µM
[20] = second compound 0.316 µM, first compound 0.1 µM
[21] = second compound 0.316 µM, first compound 0.316 µM
[22] = second compound 0.316 µM, first compound 1 µM
[23] = second compound 0.316 µM, first compound 3.16 µM
[24] = second compound 0.316 µM, first compound 10 µM
[25] = second compound 1 µM, first compound 0.0316 µM
[26] = second compound 1 µM, first compound 0.1 µM
[27] = second compound 1 µM, first compound 0.316 µM
[28] = second compound 1 µM, first compound 1 µM
[29] = second compound 1 µM, first compound 3.16 µM
[30] = second compound 1 µM, first compound 10 µM
[31] = second compound 3.16 µM, first compound 0.0316 µM
[32] = second compound 3.16 µM, first compound 0.1 µM
[33] = second compound 3.16 µM, first compound 0.316 µM
[34] = second compound 3.16 µM, first compound 1 µM
[35] = second compound 3.16 µM, first compound 3.16 µM
[36] = second compound 3.16 µM, first compound 10 µM
[37] = second compound 10 µM, first compound 0.0316 µM
[38] = second compound 10 µM, first compound 0.1 µM
[39] = second compound 10 µM, first compound 0.316 µM
[40] = second compound 10 µM, first compound 1 µM
[41] = second compound 10 µM, first compound 3.16 µM
[42] = second compound 10 µM, first compound 10 µM
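Further: spheroids exposed to the agents for 7 days before readout.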

COC1C=CCC(C)C(C)S(=O)(=O)NC(=O)c2ccc3c(c2)N(CC2CCC21)CC1(CCCc2cc(Cl)ccc21)CO3 (stereo unspecified) + CN1CCN(c2cc(C(=O)Nc3cc4cc(-c5cnn(C)c5)ccc4cn3)ccn2)CC1
IC50 [1]: 5390 nM | IC50 [2]: 3790 nM | IC50 [3]: < 31.6 nM | IC50 [4]: < 31.6 nM | IC50 [5]: < 31.6 nM | IC50 [6]: < 31.6 nM | viability, T/C [7]: 111% | viability, T/C [8]: 107% | viability, T/C [9]: 85.1% | viability, T/C [10]: 91.4% | viability, T/C [11]: 84.9% | viability, T/C [12]: 13.6% | viability, T/C [13]: 122% | viability, T/C [14]: 99.7% | viability, T/C [15]: 85.6% | viability, T/C [16]: 90.1% | viability, T/C [17]: 60.6% | viability, T/C [18]: 10.8% | viability, T/C [19]: 42.2% | viability, T/C [20]: 48% | viability, T/C [21]: 31.7% | viability, T/C [22]: 21.1% | viability, T/C [23]: 13.6% | viability, T/C [24]: 7.1% | viability, T/C [25]: 0.12% | viability, T/C [26]: 0.13% | viability, T/C [27]: 0.15% | viability, T/C [28]: 0.22% | viability, T/C [29]: 0.1% | viability, T/C [30]: 0.79% | viability, T/C [31]: 0.11% | viability, T/C [32]: 0.17% | viability, T/C [33]: 1.93% | viability, T/C [34]: 0.13% | viability, T/C [35]: 2.55% | viability, T/C [36]: 0.89% | viability, T/C [37]: 0.15% | viability, T/C [38]: 1.42% | viability, T/C [39]: 1.53% | viability, T/C [40]: 0.22% | viability, T/C [41]: 0.8% | viability, T/C [42]: 2.41%

C=C(F)C(=O)N1CCN(c2nc(OCC3CCCN3C)nc3c2CCN(c2cccc4cccc(Cl)c24)C3)CC1CC#N (stereo unspecified) + CNC(=O)c1ccc(Nc2nc(OC3CCCC3)c3c(-c4ccc5nc(C)oc5c4)c[nH]c3n2)c(OC)c1
IC50 [1]: 5650 nM | IC50 [2]: 5630 nM | IC50 [3]: 3480 nM | IC50 [4]: < 31.6 nM | IC50 [5]: < 31.6 nM | IC50 [6]: < 31.6 nM | viability, T/C [7]: 109% | viability, T/C [8]: 99.7% | viability, T/C [9]: 97.5% | viability, T/C [10]: 105% | viability, T/C [11]: 94.8% | viability, T/C [12]: 6.03% | viability, T/C [13]: 89.8% | viability, T/C [14]: 104% | viability, T/C [15]: 90.7% | viability, T/C [16]: 91.9% | viability, T/C [17]: 103% | viability, T/C [18]: 4.38% | viability, T/C [19]: 61.1% | viability, T/C [20]: 50.1% | viability, T/C [21]: 58.1% | viability, T/C [22]: 44% | viability, T/C [23]: 57.4% | viability, T/C [24]: 3.61% | viability, T/C [25]: 36.6% | viability, T/C [26]: 36.2% | viability, T/C [27]: 32.7% | viability, T/C [28]: 38.5% | viability, T/C [29]: 47% | viability, T/C [30]: 0.95% | viability, T/C [31]: 28.3% | viability, T/C [32]: 32% | viability, T/C [33]: 29.9% | viability, T/C [34]: 31.3% | viability, T/C [35]: 36.6% | viability, T/C [36]: 4.89% | viability, T/C [37]: 29% | viability, T/C [38]: 33.1% | viability, T/C [39]: 30.9% | viability, T/C [40]: 29.8% | viability, T/C [41]: 38% | viability, T/C [42]: 5.43%

CCc1c2c(nc3ccc(O)cc13)-c1cc3c(c(=O)n1C2)COC(=O)[C@]3(O)CC
viability, T/C (compound 0.00316 µM): 84.6% and 97.6% | viability, T/C (compound 0.01 µM): 38% and 69.2% | viability, T/C (compound 0.0316 µM): 12.8% and 21.2% | viability, T/C (compound 0.1 µM): 13.1% and 16% | viability, T/C (compound 0.316 µM): 17% and 25.4% | viability, T/C (compound 1 µM): 22% and 27.1% | IC50 (curve of compound): 7.43 nM and 16.1 nM
